Measurements from patent US20060258729A1, “Antibacterial pyrazole carboxylic acid hydrazides” (priority 2002, published 2006).
≈ marks a conversion by molar mass, not a printed value.

Legend:
B. subtilis pol IIIC = biological target: T1, B. subtilis pol IIIC (Bacillus subtilis, UniProt P13267); experiment: DNA polymerase assay, B. subtilis pol IIIC; type: biochemical; details: for inhibition at 80 µg/mL / Percent Enzymatic Inhibition B. subtilis pol IIIC: 80 μg/mL (190-260 μM) final concentration, all four dNTPs; for inhibition at 80 µg/mL: read-out: Percent Enzymatic Inhibition B. subtilis pol IIIC
T1 construct: made in house
Experimental: Recombinant, purified pol IIIC and pol IIIE from Bacillus subtilis were obtained using known methods (Hammond et al., Gene 98: 29-36 (1991), regarding pol IIIC; Barnes et al., J. Bacteriol. 184, 3834-3838 (2002), regarding pol IIIE). Recombinant, purified pol IIIE from Escherichia coli was obtained from a commercial source (Enzyco, Denver, Colo.). The enzyme assays were performed in 96-well plate format using the same assay mix for all three enzymes. […] Dilutions of compounds were added to the plate in 1% DMSO (1 μL/well). Assays were initiated by the addition of 0.025 to 0.06 units of enzyme (1 unit is the amount required to incorporate 250 pmoles of [^3H] dTMP in a standard assay), incubated for 10 min at 30° C. and terminated by the addition of 200 μL of cold 10% trichloroacetic acid, 10 mM sodium pyrophosphate. Precipitated labeled DNA was collected on glass fiber filter plates that had been pre-wet with ice cold 1 M HCl, 100 mM sodium pyrophosphate. The plates were washed with the HCl solution followed by ice cold 90% ethanol and then dried and counted in a liquid scintillation counter. […] In addition, percent inhibition values are calculated as the percent reduction in the activity of a DMSO (diluent) control.

B. subtilis pol IIIE [1] = biological target: T2, B. subtilis pol IIIE (Bacillus subtilis, UniProt O34623); experiment: DNA polymerase assay, B. subtilis pol IIIE; type: biochemical; details: for inhibition at 80 µg/mL: read-out: Percent Enzymatic Inhibition B. subtilis pol IIIE; for IC50: B. subtilis Pol IIIE IC50, 4 dNTPs; for IC50 / B. subtilis Pol IIIE IC50, 4 dNTPs: in the presence of all four dNTP substrates
T2 construct: made in house
Experimental: (§1) Recombinant, purified pol IIIC and pol IIIE from Bacillus subtilis were obtained using known methods (Hammond et al., Gene 98: 29-36 (1991), regarding pol IIIC; Barnes et al., J. Bacteriol. 184, 3834-3838 (2002), regarding pol IIIE). Recombinant, purified pol IIIE from Escherichia coli was obtained from a commercial source (Enzyco, Denver, Colo.). The enzyme assays were performed in 96-well plate format using the same assay mix for all three enzymes. Each 25 μL assay contained 30 mM Tris, pH 7.5, 10 mM magnesium acetate, 4 mM dithiothreitol, 20% glycerol, with 10 μM dATP, dCTP, dGTP and dTTP (3H-labelled at 1.44 Ci/mmole) and 0.4 mg/mL activated calf thymus DNA as substrates. Dilutions of compounds were added to the plate in 1% DMSO (1 μL/well). Assays were initiated by the addition of 0.025 to 0.06 units of enzyme (1 unit is the amount required to incorporate 250 pmoles of [^3H] dTMP in a standard assay), incubated for 10 min at 30° C. and terminated by the addition of 200 μL of cold 10% trichloroacetic acid, 10 mM sodium pyrophosphate. Precipitated labeled DNA was collected on glass fiber filter plates that had been pre-wet with ice cold 1 M HCl, 100 mM sodium pyrophosphate. The plates were washed with the HCl solution followed by ice cold 90% ethanol and then dried and counted in a liquid scintillation counter. The calculated IC50 is the concentration needed to inhibit 50% of the DNA polymerase activity in the presence of all four dNTP substrates. In addition, percent inhibition values are calculated as the percent reduction in the activity of a DMSO (diluent) control.

E. coli pol IIIE = biological target: T3, E. coli pol IIIE (Escherichia coli, UniProt P10443); experiment: DNA polymerase assay, E. coli pol IIIE; type: biochemical; details: 80 μg/mL (190-260 μM) final concentration, all four dNTPs; for inhibition at 80 µg/mL: read-out: Percent Enzymatic Inhibition E. coli pol IIIE
T3 construct: purchased Enzyco, Denver, Colo
Experimental: as §1

[2] = tested on: Bacillus subtilis strain BD54; experiment: Inhibition of bacterial growth (MIC), Bs; type: cell-based; details: 16 to 18 hours, 37° C.; for MIC: read-out: Minimum Inhibitory Concentration for Bacterial Growth, Bs
Experimental: (§2) Each compound was assayed against a panel of a strain of Bacillus subtilis, of strains of antibiotic-resistant and sensitive Enterococcus and Staphylococcus species, and of a strain of the Gram-negative bacterium Escherichia coli. Compounds were dissolved in DMSO at 100× the desired highest concentration and added to one well of a 96-well microassay plate. Two-fold serial drug dilutions were made across the plate in DMSO to yield 11 concentrations (usually 80-0.078 μg/mL) plus an untreated control. Drugs were then transferred to fresh plates using 1.5 μL per well. Log phase cultures were diluted to yield a concentration of 1×10^5 colony forming units/mL in either LB or BHI medium and transferred to the plates containing drug for a final volume of 150 μL. Each well, including the DMSO controls, contained a final concentration of 1% DMSO. Plates were incubated with shaking at 37° C. for 16 to 18 hours. Cell growth was determined by measuring optical density (570 nm, 1 cm path length) in a microplate reader. MIC (minimum inhibitory concentration) is equivalent to the lowest concentration at which growth is not observed. The bacterial strains and MIC determinations have been well characterized and are described elsewhere (Tarantino et al., Antimicrob. Agents Chemother., 43: 1982-1987 (1999); Daly et al., Antimicrob. Agents Chemother., 44: 2217-2221 (2000)).

[3] = tested on: Staphylococcus aureus strain IP 8; experiment: Inhibition of bacterial growth (MIC), Sa; type: cell-based; details: 37° C.; for MIC: IP8, 16 to 18 hours, read-out: Minimum Inhibitory Concentration for Bacterial Growth, Sa
Experimental: as §2

S. aureus Smith strain = experiment: Inhibition of bacterial growth (MIC), Sm; type: cell-based, Staphylococcus aureus; details: 16 to 18 hours, 37° C.; for MIC: Staphylococcus aureus, read-out: Minimum Inhibitory Concentration for Bacterial Growth, Sm
Experimental: as §2

[4] = tested on: methicillin-resistant S. aureus strain 1094; experiment: Inhibition of bacterial growth (MIC), MRSA; type: cell-based, Staphylococcus aureus; details: 16 to 18 hours, 37° C.; for MIC: Staphylococcus aureus, MRSA, read-out: Minimum Inhibitory Concentration for Bacterial Growth, MRSA
Experimental: as §2

[5] = tested on: Enterococcus faecalis strain 29212; experiment: Inhibition of bacterial growth (MIC), Efcl; type: cell-based; details: 16 to 18 hours, 37° C.; for MIC: read-out: Minimum Inhibitory Concentration for Bacterial Growth, Efcl
Experimental: as §2

[6] = tested on: E. faecium clinical isolate; experiment: Inhibition of bacterial growth (MIC), Efcm; type: cell-based; details: 16 to 18 hours, 37° C.; for MIC: Enterococcus faecium, read-out: Minimum Inhibitory Concentration for Bacterial Growth, Efcm
Experimental: as §2

[7] = tested on: vancomycin-resistant Enterococcus strain B42762; experiment: Inhibition of bacterial growth (MIC), VRE; type: cell-based; details: 16 to 18 hours, 37° C.; for MIC: VRE, read-out: Minimum Inhibitory Concentration for Bacterial Growth, VRE
Experimental: as §2

[8] = tested on: Escherichia coli strain J53; experiment: Inhibition of bacterial growth (MIC), Ec; type: cell-based; details: 16 to 18 hours, 37° C.; for MIC: read-out: Minimum Inhibitory Concentration for Bacterial Growth, Ec
Experimental: as §2

B. subtilis pol IIIE [9] = biological target: T2, B. subtilis pol IIIE; experiment: DNA polymerase assay, B. subtilis pol IIIE; type: biochemical
[10] = B. subtilis Pol IIIC IC50, −dATP, in the absence of dATP
[11] = B. subtilis Pol IIIC IC50, −dCTP, in the absence of dCTP
[12] = B. subtilis Pol IIIC IC50, −dGTP, in the absence of dGTP
[13] = in the presence of all four dNTP substrates
[14] = 80 μg/mL (190-260 μM) final concentration, all four dNTPs
[15] = B. subtilis Pol IIIE IC50, −dATP, in the absence of dATP
[16] = B. subtilis Pol IIIE IC50, −dCTP, in the absence of dCTP
[17] = B. subtilis Pol IIIE IC50, −dGTP, in the absence of dGTP

T2 sequence (O34623 whole entry): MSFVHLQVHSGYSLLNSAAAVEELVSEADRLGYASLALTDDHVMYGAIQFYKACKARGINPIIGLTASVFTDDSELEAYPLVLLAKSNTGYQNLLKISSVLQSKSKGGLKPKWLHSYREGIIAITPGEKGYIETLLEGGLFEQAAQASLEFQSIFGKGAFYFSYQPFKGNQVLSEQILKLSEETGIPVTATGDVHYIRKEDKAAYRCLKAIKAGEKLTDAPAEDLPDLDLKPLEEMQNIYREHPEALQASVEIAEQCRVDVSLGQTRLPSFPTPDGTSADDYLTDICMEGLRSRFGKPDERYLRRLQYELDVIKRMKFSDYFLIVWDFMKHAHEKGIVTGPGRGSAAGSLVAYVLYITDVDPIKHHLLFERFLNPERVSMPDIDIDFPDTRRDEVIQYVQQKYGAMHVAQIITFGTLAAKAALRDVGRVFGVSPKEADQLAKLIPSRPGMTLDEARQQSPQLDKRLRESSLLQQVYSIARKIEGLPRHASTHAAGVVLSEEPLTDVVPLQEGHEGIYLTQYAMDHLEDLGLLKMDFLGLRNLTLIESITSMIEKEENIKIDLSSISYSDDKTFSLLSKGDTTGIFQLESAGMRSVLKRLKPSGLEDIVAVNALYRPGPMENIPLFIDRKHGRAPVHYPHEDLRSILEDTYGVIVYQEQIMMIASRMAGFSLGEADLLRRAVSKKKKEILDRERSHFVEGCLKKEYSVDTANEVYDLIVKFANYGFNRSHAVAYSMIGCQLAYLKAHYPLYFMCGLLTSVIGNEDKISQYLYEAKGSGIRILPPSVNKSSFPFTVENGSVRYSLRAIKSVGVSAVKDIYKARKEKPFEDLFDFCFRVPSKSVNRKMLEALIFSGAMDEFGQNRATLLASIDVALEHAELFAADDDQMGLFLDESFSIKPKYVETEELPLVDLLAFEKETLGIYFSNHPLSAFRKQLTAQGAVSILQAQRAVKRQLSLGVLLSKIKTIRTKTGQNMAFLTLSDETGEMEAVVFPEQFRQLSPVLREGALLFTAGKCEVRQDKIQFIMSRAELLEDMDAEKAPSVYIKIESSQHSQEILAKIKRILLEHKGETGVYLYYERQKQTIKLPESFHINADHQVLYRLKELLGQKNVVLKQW
T3 sequence (P10443 whole entry): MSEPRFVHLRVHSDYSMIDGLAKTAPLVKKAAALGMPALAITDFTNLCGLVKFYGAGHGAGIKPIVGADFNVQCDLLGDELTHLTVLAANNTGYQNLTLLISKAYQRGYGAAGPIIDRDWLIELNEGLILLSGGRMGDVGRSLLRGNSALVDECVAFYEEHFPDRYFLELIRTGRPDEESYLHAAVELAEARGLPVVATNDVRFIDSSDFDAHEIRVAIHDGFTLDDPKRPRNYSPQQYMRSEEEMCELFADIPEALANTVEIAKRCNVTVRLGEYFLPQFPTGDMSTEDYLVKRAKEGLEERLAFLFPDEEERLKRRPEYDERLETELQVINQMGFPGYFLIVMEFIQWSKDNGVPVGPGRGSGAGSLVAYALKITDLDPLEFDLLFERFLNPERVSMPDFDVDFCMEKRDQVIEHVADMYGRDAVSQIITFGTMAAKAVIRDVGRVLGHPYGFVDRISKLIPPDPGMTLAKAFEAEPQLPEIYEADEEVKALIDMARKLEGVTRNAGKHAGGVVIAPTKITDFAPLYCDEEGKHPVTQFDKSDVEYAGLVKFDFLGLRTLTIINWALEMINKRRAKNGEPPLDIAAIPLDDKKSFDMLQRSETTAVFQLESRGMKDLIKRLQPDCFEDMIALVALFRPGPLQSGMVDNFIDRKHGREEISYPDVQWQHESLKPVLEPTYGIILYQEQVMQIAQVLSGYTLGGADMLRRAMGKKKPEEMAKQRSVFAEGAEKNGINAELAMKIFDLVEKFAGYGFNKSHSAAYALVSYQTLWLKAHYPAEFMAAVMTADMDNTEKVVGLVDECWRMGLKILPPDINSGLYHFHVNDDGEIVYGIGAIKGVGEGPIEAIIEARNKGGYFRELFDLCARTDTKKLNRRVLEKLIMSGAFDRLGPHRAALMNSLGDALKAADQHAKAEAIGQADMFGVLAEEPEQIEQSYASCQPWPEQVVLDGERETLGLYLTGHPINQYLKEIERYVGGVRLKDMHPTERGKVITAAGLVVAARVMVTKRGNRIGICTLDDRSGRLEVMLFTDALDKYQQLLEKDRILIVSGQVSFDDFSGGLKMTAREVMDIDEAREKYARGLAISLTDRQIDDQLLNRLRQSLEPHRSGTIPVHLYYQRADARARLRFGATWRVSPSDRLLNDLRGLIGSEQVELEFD
T1 sequence (P13267 whole entry): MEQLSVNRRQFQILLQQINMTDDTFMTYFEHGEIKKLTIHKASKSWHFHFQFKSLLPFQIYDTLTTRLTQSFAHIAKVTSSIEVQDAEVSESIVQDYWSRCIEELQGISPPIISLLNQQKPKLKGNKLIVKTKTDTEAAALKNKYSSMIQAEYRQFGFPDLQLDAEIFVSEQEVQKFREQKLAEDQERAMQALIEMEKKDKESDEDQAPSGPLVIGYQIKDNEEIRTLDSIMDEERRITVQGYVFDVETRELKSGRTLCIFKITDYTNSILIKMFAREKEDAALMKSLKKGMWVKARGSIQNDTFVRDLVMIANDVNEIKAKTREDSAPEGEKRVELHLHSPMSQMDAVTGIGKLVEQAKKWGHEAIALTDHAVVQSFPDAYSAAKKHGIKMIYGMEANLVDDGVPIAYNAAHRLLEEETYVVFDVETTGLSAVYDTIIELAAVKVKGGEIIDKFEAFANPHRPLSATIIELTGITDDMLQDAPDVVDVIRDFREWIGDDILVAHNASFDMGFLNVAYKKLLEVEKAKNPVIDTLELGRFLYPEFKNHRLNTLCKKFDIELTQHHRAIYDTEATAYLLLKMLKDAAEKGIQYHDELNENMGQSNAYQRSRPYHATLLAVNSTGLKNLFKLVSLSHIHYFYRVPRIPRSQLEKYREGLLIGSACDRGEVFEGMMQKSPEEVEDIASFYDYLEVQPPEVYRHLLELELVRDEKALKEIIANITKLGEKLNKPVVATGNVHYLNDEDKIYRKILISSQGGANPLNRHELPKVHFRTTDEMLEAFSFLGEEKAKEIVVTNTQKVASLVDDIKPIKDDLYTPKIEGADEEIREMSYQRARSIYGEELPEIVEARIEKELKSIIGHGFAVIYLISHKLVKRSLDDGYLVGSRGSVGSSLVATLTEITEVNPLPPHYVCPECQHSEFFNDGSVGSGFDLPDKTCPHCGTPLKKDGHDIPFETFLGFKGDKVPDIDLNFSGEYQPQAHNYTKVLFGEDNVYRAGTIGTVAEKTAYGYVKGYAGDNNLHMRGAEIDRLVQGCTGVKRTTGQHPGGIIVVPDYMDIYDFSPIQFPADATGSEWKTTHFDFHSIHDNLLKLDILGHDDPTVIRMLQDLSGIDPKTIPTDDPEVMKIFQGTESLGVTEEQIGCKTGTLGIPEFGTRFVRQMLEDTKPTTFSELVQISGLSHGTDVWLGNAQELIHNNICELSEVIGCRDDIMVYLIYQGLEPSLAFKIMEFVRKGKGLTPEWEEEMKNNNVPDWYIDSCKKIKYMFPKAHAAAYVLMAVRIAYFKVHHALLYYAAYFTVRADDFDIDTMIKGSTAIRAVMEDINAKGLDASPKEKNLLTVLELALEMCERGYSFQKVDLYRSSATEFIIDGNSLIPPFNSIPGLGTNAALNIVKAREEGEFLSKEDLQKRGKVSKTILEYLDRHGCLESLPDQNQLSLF

Row | Structure (SMILES) | inhibition at 80 µg/mL (B. subtilis pol IIIC) [%] | IC50 (B. subtilis pol IIIC; [10]) [µM] | IC50 (B. subtilis pol IIIC; [11]) [µM] | IC50 (B. subtilis pol IIIC; [12]) [µM] | B. subtilis Pol IIIC IC50, 4 dNTPs (B. subtilis pol IIIC; [13]) | inhibition at 80 µg/mL (B. subtilis pol IIIE [1]; [14]) [%] | IC50 (B. subtilis pol IIIE [1]) [µM] | Percent Enzymatic Inhibition E. coli pol IIIE (E. coli pol IIIE) | MIC [2] [mg/L] | MIC [3] [mg/L] | MIC (S. aureus Smith strain) [mg/L] | MIC [4] [mg/L] | MIC [5] [mg/L] | MIC [6] [mg/L] | MIC [7] [mg/L] | MIC [8] [mg/L] | IC50 (B. subtilis pol IIIE [9]; [15]) [µM] | IC50 (B. subtilis pol IIIE [9]; [16]) [µM] | IC50 (B. subtilis pol IIIE [9]; [17]) [µM] | also measured
1 | O=C(NN=Cc1ccc(O)cc1O)c1cc(-c2ccccc2)n[nH]1 [Compound 4] | 15.8 | 81 | 228 | 98 | Inactive | > 20 | 699 | Inactive | 40 (≈ 124 µM) | 30 (≈ 93.1 µM) | 60 (≈ 186 µM) | 40 (≈ 124 µM) | > 80 | 30 (≈ 93.1 µM) | > 80 | > 80 | 278 | 347 | 183 | 
2 | COc1cccc(-c2cc(C(=O)NN=Cc3ccc(OC)c(OC)c3)[nH]n2)c1 [Compound 2] |  | 99 | 287 | 406 | Inactive | > 20 | 604 |  | 20 (≈ 52.6 µM) | 10 (≈ 26.3 µM) | 20 (≈ 52.6 µM) | 20 (≈ 52.6 µM) | 40 (≈ 105 µM) | 60 (≈ 158 µM) | 40 (≈ 105 µM) | > 80 | 57 | 104 | 78 | Percent Enzymatic Inhibition B. subtilis pol IIIC (B. subtilis pol IIIC): Inactive; inhibition at 80 µg/mL (E. coli pol IIIE): 1.7%
3 | CCOc1ccc(-c2cc(C(=O)NN=Cc3ccc(O)c(OC)c3)[nH]n2)cc1 [Compound 19] | > 20 | 9 | 3.3 | 5.1 |  | 10.1 | > 841 | Inactive | 2.5 (≈ 6.57 µM) | 80 (≈ 210 µM) | > 80 | 5 (≈ 13.1 µM) | > 80 | > 80 | 10 (≈ 26.3 µM) | > 80 | > 841 | > 841 | > 841 | IC50 (B. subtilis pol IIIC; B. subtilis Pol IIIC IC50, 4 dNTPs, in the presence of all four dNTP substrates): 23 µM
4 | CCOc1cc(C=NNC(=O)c2cc(-c3cccc(OC)c3)n[nH]2)ccc1O [Compound 3] | 5.3 | 141 | 563 | 301 | Inactive | > 20 |  | Inactive | > 80 | 20 (≈ 52.6 µM) | 40 (≈ 105 µM) | 40 (≈ 105 µM) | 80 (≈ 210 µM) | 80 (≈ 210 µM) | 40 (≈ 105 µM) | > 80 | 124 | 222 | 311 | B. subtilis Pol IIIE IC50, 4 dNTPs (B. subtilis pol IIIE [1]): Inactive
5 | COc1cc(C=NNC(=O)c2cc(-c3ccccc3)n[nH]2)ccc1O [Compound 5] | 4.8 | 41 | 265 | 89 | Inactive | > 20 | 205 |  | 60 (≈ 178 µM) | 20 (≈ 59.5 µM) | 40 (≈ 119 µM) | 40 (≈ 119 µM) | 40 (≈ 119 µM) | 80 (≈ 238 µM) | 40 (≈ 119 µM) | > 80 | 213 | 383 | 111 | inhibition at 80 µg/mL (E. coli pol IIIE): 2%
6 | COc1ccc(-c2cc(C(=O)NN=Cc3ccc(O)cc3)[nH]n2)cc1 [Compound 16] | 9.9 | 89 | 96 | 60 | Inactive | > 20 |  | Inactive | > 80 | > 80 | > 80 | > 80 | > 80 | > 80 | 80 (≈ 238 µM) | > 80 | 117 | 156 | 318 | B. subtilis Pol IIIE IC50, 4 dNTPs (B. subtilis pol IIIE [1]): Inactive
7 | COc1cccc(-c2cc(C(=O)NN=Cc3ccc(O)cc3)[nH]n2)c1 [Compound 14] |  |  |  |  |  |  |  | Inactive |  |  |  |  |  |  |  |  |  |  |  | Percent Enzymatic Inhibition B. subtilis pol IIIC (B. subtilis pol IIIC): 0.5%; Percent Enzymatic Inhibition B. subtilis pol IIIE (B. subtilis pol IIIE [1]; [14]): 18.1%; Minimum Inhibitory Concentration for Bacterial Growth, Bs [2]: >80 µg/mL; Minimum Inhibitory Concentration for Bacterial Growth, Sa ([3]; 16 to 18 hours): 80 µg/mL; Minimum Inhibitory Concentration for Bacterial Growth, Sm (S. aureus Smith strain): 80 µg/mL; Minimum Inhibitory Concentration for Bacterial Growth, MRSA [4]: 80 µg/mL; Minimum Inhibitory Concentration for Bacterial Growth, Efcl [5]: >80 µg/mL; Minimum Inhibitory Concentration for Bacterial Growth, Efcm [6]: >80 µg/mL; Minimum Inhibitory Concentration for Bacterial Growth, VRE [7]: 80 µg/mL; Minimum Inhibitory Concentration for Bacterial Growth, Ec [8]: >80 µg/mL
